{
  "source": "patent US11844823B2",
  "about": "“Beta-hairpin peptidomimetic with elastase inhibitory activity and aerosol dosage forms thereof” (POLYPHOR AG, priority 2016, dated 2023)",
  "key": {"healthy subjects": {"test_system": "healthy subjects", "assay": "First-in-man study in healthy subjects, safety and tolerability of orally inhaled single doses", "format": "in vivo, human", "excerpt": "In this randomised, double-blind, placebo-controlled, parallel-group (per dose level) dose-escalation study of inhaled single doses in 48 healthy subjects in six dose groups of eight subjects each, conducted by Inamed GmbH, Gauting, Germany, the controlled oral inhalation of the formulation described in Example 1 and dilutions thereof as well as the placebo (0.5% [w/w] aqueous sodium chloride solution adjusted to pH 5.5 with 1 M HCl pharmaceutical grade) occurred via the Pari eFlow® XL 30 nebulizer device (Pari Pharma GmbH, Starnberg, Germany). The dose levels and corresponding concentrations of cyclo(-OctG-Glu-Thr-Ala-Ser-Ile-Pro-Pro-Gln-Lys-Tyr-^DPro-Pro-) (active compound) are summarized in Table 10.\nThe volume of placebo nebulizer solution corresponded to that of the active compound at a particular dose level. The duration of inhalation depended on the total volume of nebulizer solution and ranged between several minutes and roughly one hour. Adverse events were tabulated and summarized according to the current version of Medical Dictionary for Regulatory Activities."}, "neutrophil elastase [1]": {"test_system": "neutrophil elastase", "assay": "Previous intratracheal study in the LPS/fMLP rat model", "format": "in vivo", "conditions": "intratracheal doses of 0.03 to 3 mg/kg", "excerpt": "The doses of fMLP and the time points were chosen based upon published data (see e.g. S. Yasui, A. Nagai, K. Aoshiba et al., Eur. Respir. J., 1995, 8, 1293; T. Yang, J. Zhang, K. Sun et al., Inflamm. Res. 2012, 61, 563; R. Corteling, D. Wyss, A. Trifilieff, BMC Pharmacology, 2002, 2, 1) and experience at Envigo CRS Limited. The dose selection of the drug was based on a previous intratracheal study at Envigo CRS Limited."}, "rats": {"test_system": "rats", "assay": "GLP-compliant 28-day inhalation toxicity study in rats", "format": "in vivo, rat", "protocol": "In a GLP-compliant 28-day inhalation toxicity study in rats, conducted by Charles River Laboratories Preclinical Services, Tranent, Edinburgh, UK, the formulation described in Example 2 and dilutions thereof as well as the vehicle were administered using the Pari eFlow® XL 30 nebulizer device (Pari Pharma, Starnberg, Germany) for 100 min per day for 28 days, followed by a 2-week recovery period. […] Ten animals were used for the main toxicity study, and 5 additional animals for the recovery phase. Parameters assessed included clinical signs, body weights, food consumption, ophthalmic examination, clinical pathology, gross necropsy findings, organ weights and histopathologic examinations. […] This was associated with reduction in food consumption in treated animals. There was a good recovery in body weight gain during the recovery period between day 28 and 42.\nThese changes resolved during the recovery period and were considered a non-adverse, adaptive response to mild irritation. […] This slight increase in macrophage accumulation was considered a nonspecific response to the inhalation of high concentrations of material exceeding the clearance capacity of the lung."}, "neutrophil elastase [2]": {"test_system": "neutrophil elastase", "assay": "LPS/fMLP model of neutrophil activation in the rat, inhalation; neutrophil elastase activity in BAL supernatant", "format": "in vivo", "conditions": "for NE activity in BAL fluid: mean ± s.e.m., vehicle 0.25 ± 0.02, p < 0.0001", "protocol": "The purpose of this study (conducted by Envigo CRS Limited, Alconbury, Huntingdon, United Kingdom) was to evaluate the effects of acetate salt of cyclo(-OctG-Glu-Thr-Ala-Ser-Ile-Pro-Pro-Gln-Lys-Tyr-^DPro-Pro-) administered by inhalation in a LPS/fMLP model of neutrophil activation in the rat.\nAnimals were challenged with aerosolized LPS (lipopolysaccharide, 1 mg/mL) for 30 min. Approximately 3 h following end of LPS challenge, animals were administered either vehicle or formulations as described above of acetate salt of cyclo(-OctG-Glu-Thr-Ala-Ser-Ile-Pro-Pro-Gln-Lys-Tyr-^DPro-Pro-) by inhalation (Groups 1-4) over a 30 min period using an eFlow® 30 XL electronic nebulizer (Pari Pharma GmbH, Starnberg, Germany; snout only exposure). All animals were dosed with fMLP (N-formyl-Met-Leu-Phe, 5 mg/kg) approximately 4 h post completion of the LPS challenge via the intratracheal route under transient gaseous anaesthesia at a dose volume of 1 mL/kg. Approximately 2 h after fMLP administration, animals were terminated and a bronchoalveolar lavage (BAL) was performed to evaluate inflammatory cell infiltrate and neutrophil elastase activity.\nFollowing confirmation of death, the trachea of an animal was isolated, the tracheal cannula inserted and secured in place, and the airway was lavaged with 3 mL of phosphate buffered saline (PBS). The lavage was repeated twice and in total, three lots of 3 mL of PBS were used. The first lavage aliquot containing cells was placed into a 15 mL centrifuge tube on wet ice (Tube A). The BAL fluid pooled from the second two lavages was placed into a second tube (Tube B). Tube A and B were placed on wet ice until centrifuged. Centrifugation was performed at 800×g for 10 min at ca. 4° C. and the supernantant was harvested. Until neutrophil elastase analysis supernantant was stored at ca. […].\nThe two aliquots of BAL supernatant were analyzed for neutrophil elastase activity as follows: 120 μl of BAL supernatant from aliquot 1 was transferred to a 96 well plate (Corning #3650). In parallel, a dilution range from 1.6 to 0.025 mU/well of a commercial human neutrophil elastase (hNE, Serva #20927.01) was prepared. 120 μl of each hNE dilution were transferred in duplicate to the 96-well plate. To start the enzymatic reaction, 80 μl of a fluorescent peptide substrate (MeOSuc-Ala-Ala-Pro-Val-AMC) at a final concentration of 500 μM was added to each well and the plate was immediately placed in the victor2v fluorescent reader pre-warmed at 37° C. Fluorescence (λexc. 485 nm, λem. 535 nm) was recorded for 2 h at 37° C. Enzyme initial velocity (RFU/min) of all samples was calculated and converted in mU/mL hNE equivalent, using the linear regression equation obtained from the plot (RFU/min vs mU/mL of hNE dilution) of the human neutrophil elastase standard range. The assay was repeated using BAL supernatant from aliquot 2. The neutrophil elastase data reported is a mean of the neutrophil elastase activity from both aliquots."}, "cynomolgus monkeys": {"test_system": "cynomolgus monkeys", "assay": "GLP-compliant 28-day inhalation toxicity study in monkeys", "format": "in vivo, cynomolgus monkey", "protocol": "In a GLP-compliant 28-day inhalation toxicity study in cynomolgus monkeys, conducted by Charles River Laboratories Preclinical Services, Tranent, Edinburgh, UK, the formulation described in Example 2 and dilutions thereof as well as the vehicle were administered using the Pari eFlow® XL 30 nebulizer device (Pari Pharma, Starnberg, Germany) with an oro-nasal inhalation mask for 60 min per day for 28 days, followed by a 2-week recovery period. […] In total five males and five females were used for each dose of the toxicity study including recovery. Parameters assessed included clinical signs, body weights, electrocardiology, ophthalmic examination, clinical pathology, toxicokinetic parameters in the plasma, gross necropsy findings, organ weights and histopathologic examinations."}},
  "note": "Non-standard residues stand in square brackets, D forms with d. Residues, ends and D or L forms follow the SMILES beside them. Gly(octyl) = CCCCCCCC[C@H](N)C(=O)O",
  "data": [
    {"compound": "CCCCCCCC[C@@H]1NC(=O)[C@@H]2CCCN2C(=O)[C@H]2CCCN2C(=O)[C@H](Cc2ccc(O)cc2)NC(=O)[C@H](CCCCN)NC(=O)[C@H](CCC(N)=O)NC(=O)[C@@H]2CCCN2C(=O)[C@@H]2CCCN2C(=O)[C@H]([C@@H](C)CC)NC(=O)[C@H](CO)NC(=O)[C@H](C)NC(=O)[C@H]([C@@H](C)O)NC(=O)[C@H](CCC(=O)O)NC1=O", "note": "[cyclo(-OctG-Glu-Thr-Ala-Ser-Ile-Pro-Pro-Gln-Lys-Tyr-^DPro-Pro-)] (cyclo([Gly(octyl)]ETASIPPQKY[dP]P))", "values": [
      {"measurement": "death, serious and other significant adverse events", "setting": "healthy subjects; healthy subjects, single inhaled doses 20-960 mg", "result": "No death, no serious adverse events (AE) and no other significant AE"},
      {"measurement": "subjects judging overall tolerability 'very good' or 'good'", "setting": "healthy subjects; human, in vivo", "result": 97.9, "unit": "%"},
      {"measurement": "total number of AEs", "setting": "healthy subjects; human, in vivo", "result": 27},
      {"measurement": "treatment-emergent adverse events (TEAEs)", "setting": "healthy subjects; human, in vivo", "result": 24},
      {"measurement": "efficacy in LPS/fMLP animal model", "setting": "neutrophil elastase [1]", "result": "efficacious"},
      {"measurement": "clinical signs or ophthalmic findings", "setting": "rats; rat, 11, 53 and 119 mg/kg/day", "result": "no clinical signs or ophthalmic findings"},
      {"measurement": "histopathology of the larynx", "setting": "rats; rat, in vivo", "result": "focal minimal squamous metaplasia without cellular atypia of dysplasia"},
      {"measurement": "organ weights or gross findings", "setting": "rats; rat, in vivo", "result": "no treatment-related changes"},
      {"measurement": "clinical pathology findings considered toxicologically relevant", "setting": "rats; rat, haematology, coagulation, clinical chemistry, urinalysis", "result": "no findings"},
      {"measurement": "NE activity in BAL fluid", "setting": "neutrophil elastase [2]; 0.3 mg/kg inhalation", "result": "0.10 ± 0.01", "unit": "mU/mL eq."},
      {"measurement": "NE activity in BAL fluid", "setting": "neutrophil elastase [2]; 3 mg/kg inhalation", "result": "0.11 ± 0.01", "unit": "mU/mL eq."},
      {"measurement": "NE activity in BAL fluid", "setting": "neutrophil elastase [2]; 30 mg/kg inhalation", "result": "0.07 ± 0.01", "unit": "mU/mL eq."},
      {"measurement": "effect on neutrophil elastase activity in BAL fluid", "setting": "neutrophil elastase [2]; 0.3, 3 and 30 mg/kg by inhalation 3 h post LPS, 1 h prior to fMLP, BAL 6 h post LPS", "result": "significantly inhibited"},
      {"measurement": "clinical signs between dosing and study termination", "setting": "neutrophil elastase [2]; rat, inhalation 0.3-30 mg/kg", "result": "No test item related clinical signs"},
      {"measurement": "histopathologic findings", "setting": "cynomolgus monkeys; cynomolgus monkey, in vivo", "result": "increased numbers of alveolar macrophages, perivascular/peribronchiolar infiltrates, and granular eosinophilic deposits in the lung and lymphoid hyperplasia in the tracheobronchial lymph nodes"},
      {"measurement": "body weight, clinical signs, ophthalmic, electrocardiographic findings, urinary parameters", "setting": "cynomolgus monkeys; monkey, 11.2, 30.1 and 112 mg/kg/day", "result": "no body weight changes, clinical signs, ophthalmic or electrocardiographic findings or changes in urinary parameters attributable to drug treatment"}
    ]}
  ]
}
